System: PC-9-EGFR-Del19-T790M-C797S cells
Assay: proliferation inhibition on PC-9-EGFR-Del19-T790M-C797S cells, sulforhodamine B method (SRB method)
Type: cell-based
Conditions: Homo sapiens, in vitro proliferation inhibition, 72 hours culture, final concentrations 2500 to 0.01nM
Description: The in vitro proliferation inhibition activity of the compound on PC-9-EGFR-Del19-T790M-C797Slcells where Del19/T790M/C797S triple mutation exists in exogenously stably overexpressed EGFR protein of human non-small cell lung cancer PC-9 was determined by sulforhodamine B method (SRB method).
Cell source: PC-9-EGFR-Del19-T790M-C797S cells were purchased from Nanjing Cobioer Biosciences Co., Ltd.
PC-9-EGFR-Del19-T790M-C797S cells were cultured in an RPMI1640 complete medium containing puromycin (2µg/ml) and 10% fetal bovine serum. PC-9-EGFR-Del19-T790M-C797S cells in a logarithmic growth phase were taken, seeded in a 96-well plate at a cell density of 5000 cells/135µL complete culture medium/well, placed in a thermostatic incubator containing 5% CO2 at 37°C and cultured for 24 hours to ensure complete anchorage of cells. Each compound was dissolved in dimethyl sulfoxide (DMSO) in advance to prepare a 10mM stock solution, and then the compound was successively diluted with DMSO and the complete culture medium. […]
GraphPad Prism 8.3 software was used for data analysis, and non-linear S-curve regression was used for fitting the data to obtain a dose-effect curve, from which an IC50 value was calculated, and the results are shown in Table 1.

**Q.** Which IC50 does the source give for `C=CC(=O)Nc1cc(Nc2nccc(-c3cn(C)c4ccccc34)n2)c(OCC(F)(F)F)nc1N(C)CC[N+](C)(C)[O-]` [Compound V] here?
**A.** The IC50 was 564 nM.

Source: EP4442684A1, “A CLASS OF PYRIMIDINE COMPOUNDS, AND PREPARATION METHOD THEREFOR AND USE THEREOF” (Shanghai Allist Pharmaceuticals Co., Ltd., priority 2021, dated 2023)
